Data published in US8680159B2, “Bradykinin 1 receptor modulating compounds” (Gruenenthal GmbH, priority 2010, dated 2014).

Each compound was assayed against T1, B1R receptor of the rat (CHO K1 cells stably transfected with the B1R gene of the rat) (Rattus norvegicus, UniProt P97583) (assay: Functional study on the bradykinin receptor 1 (B1R), Ca2+ fluorescence (Fluo-4) FLIPR/Novostar assay, rB1R cells). Conditions: CHO-K1, 10 μM, read-out: % Inhibition (r-B1R) at 10 μM.
T1 construct: expressed in transfected cells; host or cells: CHO K1 cells (Chinese hamster ovary), stably transfected
T1 sequence (P97583 1-337): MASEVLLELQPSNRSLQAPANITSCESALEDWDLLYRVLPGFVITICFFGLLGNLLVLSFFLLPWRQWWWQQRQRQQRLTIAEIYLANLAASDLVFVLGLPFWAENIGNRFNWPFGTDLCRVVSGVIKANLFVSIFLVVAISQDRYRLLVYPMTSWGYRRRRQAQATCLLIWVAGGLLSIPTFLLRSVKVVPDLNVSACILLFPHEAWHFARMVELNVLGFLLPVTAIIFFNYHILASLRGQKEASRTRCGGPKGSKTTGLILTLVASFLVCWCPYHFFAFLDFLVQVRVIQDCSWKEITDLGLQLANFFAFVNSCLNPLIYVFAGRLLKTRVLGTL
Format: cell-based
Method in brief: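 Test compounds (10 μM) were added first and the Ca2+ rise was scored as % activation against Lys-Des-Arg9-bradykinin (≥50 nM, human) or Des-Arg9-bradykinin (≥1 μM, rat). After 6-20 min, the matching agonist was given at its EC80, and % inhibition relative to maximal achievable inhibition was calculated.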

Row | SMILES | inhibition at 10 µM
1 | Cc1cc(N2CCC(N(C)C(=O)c3ccc4c(c3)C(NC(=O)Nc3ccc(Cl)cc3C(F)(F)F)CC4)CC2)cc(C)n1 (stereo not drawn) [CC_H-312, 3-[[[4-Chloro-2-(trifluoromethyl)-phenyl]-carbamoyl]amino]-N-[1-(2,6-dimethyl-pyridin-4-yl)-piperidin-4-yl]-N-methyl-2,3-dihydro-1H-indene-5-carboxylic acid amide] | 92%
2 | Cc1cc(N2CCC(N(C)C(=O)c3ccc4c(c3)C(NC(=O)Nc3ccc(F)c(Cl)c3)CC4)CC2)cc(C)n1 (stereo not drawn) [CC_H-314, 3-[[(3-Chloro-4-fluoro-phenyl)-carbamoyl]amino]-N-[1-(2,6-dimethyl-pyridin-4-yl)-piperidin-4-yl]-N-methyl-2,3-dihydro-1H-indene-5-carboxylic acid amide] | 81%
3 | COc1ccc(Cl)cc1NC(=O)NC1CCc2ccc(C(=O)N(C)C3CCN(c4cc(C)nc(C)c4)CC3)cc21 (stereo not drawn) [CC_H-315, 3-[[(5-Chloro-2-methoxy-phenyl)-carbamoyl]amino]-N-[1-(2,6-dimethyl-pyridin-4-yl)-piperidin-4-yl]-N-methyl-2,3-dihydro-1H-indene-5-carboxylic acid amide] | 72%
4 | Cc1cc(N2CCC(N(C)C(=O)c3ccc4c(c3)C(NC(=O)N(C)c3ccccc3Cl)CC4)CC2)cc(C)n1 (stereo not drawn) [CC_H-316, 3-[[(2-Chlorophenyl)-methyl-carbamoyl]amino]-N-[1-(2,6-dimethyl-pyridin-4-yl)-piperidin-4-yl]-N-methyl-2,3-dihydro-1H-indene-5-carboxylic acid amide] | 106%
5 | Cc1cc(N2CCC(N(C)C(=O)c3ccc4c(c3)C(NC(=O)N(C)c3ccc(Cl)cc3Cl)CC4)CC2)cc(C)n1 (stereo not drawn) [CC_H-317, 3-[[(2,4-Dichlorophenyl)-methyl-carbamoyl]amino]-N-[1-(2,6-dimethyl-pyridin-4-yl)-piperidin-4-yl]-N-methyl-2,3-dihydro-1H-indene-5-carboxylic acid amide] | 110%
6 | Cc1cc(N2CCC(N(C)C(=O)c3ccc4c(c3)C(NC(=O)CC(C)C)CC4)CC2)cc(C)n1 (stereo not drawn) [CC_H-318, N-[1-(2,6-Dimethyl-pyridin-4-yl)-piperidin-4-yl]-N-methyl-3-(3-methyl-butanoylamino)-2,3-dihydro-1H-indene-5-carboxylic acid amide] | 111%
7 | CCCC(=O)NC1CCc2ccc(C(=O)N(C)C3CCN(c4cc(C)nc(C)c4)CC3)cc21 (stereo not drawn) [CC_H-319, 3-(Butanoylamino)-N-[1-(2,6-dimethyl-pyridin-4-yl)-piperidin-4-yl]-N-methyl-2,3-dihydro-1H-indene-5-carboxylic acid amide] | 106%
8 | Cc1cc(N2CCC(N(C)C(=O)c3ccc4c(c3)C(NC(=O)CCC3CCCC3)CC4)CC2)cc(C)n1 (stereo not drawn) [CC_H-320, 3-(3-Cyclopentyl-propanoylamino)-N-[1-(2,6-dimethyl-pyridin-4-yl)-piperidin-4-yl]-N-methyl-2,3-dihydro-1H-indene-5-carboxylic acid amide] | 110%
9 | CCS(=O)(=O)NC1CCc2ccc(C(=O)N(C)C3CCN(c4cc(C)nc(C)c4)CC3)cc21 (stereo not drawn) [CC_H-321, N-[1-(2,6-Dimethyl-pyridin-4-yl)-piperidin-4-yl]-3-[(ethylsulfonyl)amino]-N-methyl-2,3-dihydro-1H-indene-5-carboxylic acid amide] | 65%
10 | Cc1cc(N2CCC(N(C)C(=O)c3ccc4c(c3)C(NS(=O)(=O)Cc3cccc(C(F)(F)F)c3)CC4)CC2)cc(C)n1 (stereo not drawn) [CC_H-322, N-[1-(2,6-Dimethyl-pyridin-4-yl)-piperidin-4-yl]-N-methyl-3-[[[3-(trifluoromethyl)phenyl]-methylsulfonyl]amino]-2,3-dihydro-1H-indene-5-carboxylic acid amide] | 84%
11 | Cc1cc(N2CCC(N(C)C(=O)c3ccc4c(c3)C(NS(=O)(=O)Cc3ccccc3F)CC4)CC2)cc(C)n1 (stereo not drawn) [CC_H-323, N-[1-(2,6-Dimethyl-pyridin-4-yl)-piperidin-4-yl]-3-[[(2-fluorophenyl)-methylsulfonyl]amino]-N-methyl-2,3-dihydro-1H-indene-5-carboxylic acid amide] | 110%
12 | Cc1cc(N2CCC(N(C)C(=O)c3ccc4c(c3)C(NS(=O)(=O)CCc3ccccc3Cl)CC4)CC2)cc(C)n1 (stereo not drawn) [CC_H-324, 3-[[2-(2-Chlorophenyl)-ethylsulfonyl]amino]-N-[1-(2,6-dimethyl-pyridin-4-yl)-piperidin-4-yl]-N-methyl-2,3-dihydro-1H-indene-5-carboxylic acid amide] | 108%
13 | Cc1cc(N2CCC(N(C)C(=O)c3ccc4c(c3)C(N(C)C(=O)c3cc(F)ccc3Cl)CC4)CC2)cc(C)n1 (stereo not drawn) [CC_H-325, 3-[(2-Chloro-5-fluoro-benzoyl)-methyl-amino]-N-[1-(2,6-dimethyl-pyridin-4-yl)-piperidin-4-yl]-N-methyl-2,3-dihydro-1H-indene-5-carboxylic acid amide] | 112%
14 | Cc1cc(N2CCC(N(C)C(=O)c3ccc4c(c3)C(N(C)C(=O)c3cc(C(F)(F)F)ccc3Cl)CC4)CC2)cc(C)n1 (stereo not drawn) [CC_H-326, 3-[[2-Chloro-5-(trifluoromethyl)-benzoyl]-methyl-amino]-N-[1-(2,6-dimethyl-pyridin-4-yl)-piperidin-4-yl]-N-methyl-2,3-dihydro-1H-indene-5-carboxylic acid amide] | 112%
15 | Cc1cc(N2CCC(N(C)C(=O)c3ccc4c(c3)C(N(C)C(=O)c3c(F)ccc(C)c3Cl)CC4)CC2)cc(C)n1 (stereo not drawn) [CC_H-327, 3-[(2-Chloro-6-fluoro-3-methyl-benzoyl)-methyl-amino]-N-[1-(2,6-dimethyl-pyridin-4-yl)-piperidin-4-yl]-N-methyl-2,3-dihydro-1H-indene-5-carboxylic acid amide] | 112%
16 | Cc1cc(N2CCC(N(C)C(=O)c3ccc4c(c3)C(N(C)C(=O)c3cc(Cl)ccc3Cl)CC4)CC2)cc(C)n1 (stereo not drawn) [CC_H-328, 3-[(2,5-Dichloro-benzoyl)-methyl-amino]-N-[1-(2,6-dimethyl-pyridin-4-yl)-piperidin-4-yl]-N-methyl-2,3-dihydro-1H-indene-5-carboxylic acid amide] | 111%
17 | Cc1cc(N2CCC(N(C)C(=O)c3ccc4c(c3)C(N(C)C(=O)c3c(Cl)cccc3C(F)(F)F)CC4)CC2)cc(C)n1 (stereo not drawn) [CC_H-329, 3-[[2-Chloro-6-(trifluoromethyl)-benzoyl]-methyl-amino]-N-[1-(2,6-dimethyl-pyridin-4-yl)-piperidin-4-yl]-N-methyl-2,3-dihydro-1H-indene-5-carboxylic acid amide] | 111%
18 | Cc1cc(N2CCC(N(C)C(=O)c3ccc4c(c3)C(N(C)C(=O)C3CCCCC3)CC4)CC2)cc(C)n1 (stereo not drawn) [CC_H-330, 3-(Cyclohexanecarbonyl-methyl-amino)-N-[1-(2,6-dimethyl-pyridin-4-yl)-piperidin-4-yl]-N-methyl-2,3-dihydro-1H-indene-5-carboxylic acid amide] | 111%
19 | Cc1cc(N2CCC(N(C)C(=O)c3ccc4c(c3)C(N(C)C(=O)C3CC3)CC4)CC2)cc(C)n1 (stereo not drawn) [CC_H-331, 3-(Cyclopropanecarbonyl-methyl-amino)-N-[1-(2,6-dimethyl-pyridin-4-yl)-piperidin-4-yl]-N-methyl-2,3-dihydro-1H-indene-5-carboxylic acid amide] | 104%
20 | Cc1cc(N2CCC(N(C)C(=O)c3ccc4c(c3)C(N(C)C(=O)CC(C)(C)C)CC4)CC2)cc(C)n1 (stereo not drawn) [CC_H-332, 3-(3,3-Dimethyl-butanoyl-methyl-amino)-N-[1-(2,6-dimethyl-pyridin-4-yl)-piperidin-4-yl]-N-methyl-2,3-dihydro-1H-indene-5-carboxylic acid amide] | 111%
21 | COCC(=O)N(C)C1CCc2ccc(C(=O)N(C)C3CCN(c4cc(C)nc(C)c4)CC3)cc21 (stereo not drawn) [CC_H-333, N-[1-(2,6-Dimethyl-pyridin-4-yl)-piperidin-4-yl]-3-[(2-methoxy-acetyl)-methyl-amino]-N-methyl-2,3-dihydro-1H-indene-5-carboxylic acid amide] | 84%
22 | Cc1cc(N2CCC(N(C)C(=O)c3ccc4c(c3)C(N(C)S(=O)(=O)c3c(C)cccc3Cl)CC4)CC2)cc(C)n1 (stereo not drawn) [CC_H-335, 3-[[(2-Chloro-6-methyl-phenyl)sulfonyl]-methyl-amino]-N-[1-(2,6-dimethyl-pyridin-4-yl)-piperidin-4-yl]-N-methyl-2,3-dihydro-1H-indene-5-carboxylic acid amide] | 110%
23 | Cc1cc(N2CCC(N(C)C(=O)c3ccc4c(c3)C(N(C)C(=O)Nc3ccccc3Cl)CC4)CC2)cc(C)n1 (stereo not drawn) [CC_H-336, 3-[[(2-Chlorophenyl)-carbamoyl]-methyl-amino]-N-[1-(2,6-dimethyl-pyridin-4-yl)-piperidin-4-yl]-N-methyl-2,3-dihydro-1H-indene-5-carboxylic acid amide] | 97%
24 | Cc1cc(N2CCC(N(C)C(=O)c3ccc4c(c3)C(N(C)C(=O)Nc3cccc(Cl)c3)CC4)CC2)cc(C)n1 (stereo not drawn) [CC_H-337, 3-[[(3-Chlorophenyl)-carbamoyl]-methyl-amino]-N-[1-(2,6-dimethyl-pyridin-4-yl)-piperidin-4-yl]-N-methyl-2,3-dihydro-1H-indene-5-carboxylic acid amide] | 110%
